# From the supplement of paper PMC11061612
# Assays:
# Assay in all cases: combination Emax (second highest fraction inhibited in the dose matrix, 72 h); higher = more inhibition; extreme values may be limits of the assay
# [1] = system: KYSE-270 (Esophageal Squamous Cell Carcinoma)
# How it was run: (§1)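 Cell lines grown in DMEM/F12 or RPMI with 10% FBS were plated in 1536-well plates and held 24 hours at 37°C, 5% CO2 before 72 hours of exposure to two-drug dose matrices, with DMSO typically at 0.2%. CellTiter-Glo 2.0 luminescence gave viability, which was converted to inhibition. Vehicle wells were set to 0 and blank wells to 1. Combination Emax is the second-highest inhibition in the matrix, and Bliss excess is the observed combination effect minus the expected EA + EB − EA·EB, where EA and EB are the single-agent effects.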
# [2] = system: MOG-G-CCM (Low Grade Glioma)
# How it was run: as §1
# [3] = system: NCI-H3122 (Lung Adenocarcinoma)
# How it was run: as §1
# [4] = system: 8505C (Thyroid Gland Carcinoma)
# How it was run: as §1
# [5] = system: KU812 (Chronic Myelogenous Leukemia)
# How it was run: as §1
# [6] = system: CW-2 (Colorectal Carcinoma)
# How it was run: as §1
# [7] = system: CHSA8926 (Chondrosarcoma)
# How it was run: as §1
# RD (Rhabdomyosarcoma) = system: RD (Rhabdomyosarcoma)
# How it was run: as §1
# G-361 (Melanoma) = system: G-361 (Melanoma)
# How it was run: as §1
# SJSA-1 (Osteosarcoma) = system: SJSA-1 (Osteosarcoma)
# How it was run: as §1
# [8] = system: HCC1419 (Breast Carcinoma)
# How it was run: as §1
# M059J (Glioblastoma) = system: M059J (Glioblastoma)
# How it was run: as §1
# [9] = system: NCCIT (Other Solid Carcinomas)
# How it was run: as §1
# [10] = system: NCI-H520 (Squamous Cell Lung Carcinoma)
# How it was run: as §1
# [11] = system: KMS-12-BM (Plasma Cell Myeloma)
# How it was run: as §1
# [12] = system: NCI-H929 (Plasma Cell Myeloma)
# How it was run: as §1
# [13] = system: SK-GT-4 (Esophageal Adenocarcinoma)
# How it was run: as §1
# [14] = system: T-T (Esophageal Squamous Cell Carcinoma)
# How it was run: as §1
# [15] = system: SU-DHL-5 (B-Cell Non-Hodgkin's Lymphoma)
# How it was run: as §1
# [16] = system: JHH-4 (Hepatocellular Carcinoma)
# How it was run: as §1
SMILES,combination Emax [1],combination Emax [2],combination Emax [3],combination Emax [4],combination Emax [5],combination Emax [6],combination Emax [7],combination Emax (RD (Rhabdomyosarcoma)),combination Emax (G-361 (Melanoma)),combination Emax (SJSA-1 (Osteosarcoma)),combination Emax [8],combination Emax (M059J (Glioblastoma)),combination Emax [9],combination Emax [10],combination Emax [11],combination Emax [12],combination Emax [13],combination Emax [14],combination Emax [15],combination Emax [16]
"Cc1cc2ncnn2cc1Nc1ncc2c(n1)n(C1CCOCC1)c(=O)n2C [AZD7648] + CN(C)CCCOc1ccc(-c2ccc3ncc4c(c3c2)n(C2CCOCC2)c(=O)n4C)cn1 [AZD0156] (first compound max 10 µM, 7x7, partner max 1 µM)",0.143,0.256,0.423,0.189,0.467,0.207,0.446,0.195,0.217,0.456,0.358,0.321,0.282,0.614,0.49,0.855,0.315,0.246,0.66,0.247
"Cc1cc2ncnn2cc1Nc1ncc2c(n1)n(C1CCOCC1)c(=O)n2C [AZD7648] + C[C@@H]1COCCN1C2=NC(=NC(=C2)C3(CC3)[S@](=N)(=O)C)C4=C5C=CNC5=NC=C4 [AZD6738] (first compound max 10 µM, 7x7, partner max 10 µM)",0.717,0.577,0.751,0.361,0.769,0.461,0.428,0.246,0.45,0.435,0.327,0.514,0.641,0.771,0.926,0.846,0.576,0.531,1,0.276
"Cc1cc2ncnn2cc1Nc1ncc2c(n1)n(C1CCOCC1)c(=O)n2C [AZD7648] + O=C(c1cc(Cc2n[nH]c(=O)c3ccccc23)ccc1F)N1CCN(C(=O)C2CC2)CC1 [Olaparib] (first compound max 10 µM, 7x7, partner max 10 µM)",0.212,0.236,0.281,0.229,0.393,0.0683,0.241,0.161,0.117,0.18,0.174,0.431,0.192,0.485,0.429,0.761,0.26,0.0568,0.96,0.112
"COc1cccc2c1C(=O)c1c(O)c3c(c(O)c1C2=O)C[C@@](O)(C(=O)CO)C[C@@H]3O[C@H]1C[C@H](N)[C@H](O)[C@H](C)O1 [Doxorubicin] + Cc1cc2ncnn2cc1Nc1ncc2c(n1)n(C1CCOCC1)c(=O)n2C [AZD7648] (first compound max 1 µM, 7x7, partner max 10 µM)",0.944,0.663,0.921,0.846,0.822,0.231,0.701,0.493,0.926,0.864,0.535,0.829,0.825,0.771,0.84,0.994,0.593,0.624,1,0.666
"COc1cc2ncnc(Nc3ccc(F)c(Cl)c3)c2cc1OCCCN1CCOCC1 [Gefitinib] + CC(C)n1c(=O)n(C)c2cnc3cc(F)c(-c4ccc(OCCCN5CCCCC5)nc4)cc3c21 [AZD1390] (first compound max 10 µM, 7x7, partner max 0.3 µM)",0.435,0.137,0.0961,0.0956,0.425,0.41,0.194,0.0787,0.812,0.0992,0.425,0.178,0.418,0.15,0.308,0.187,0.373,0.411,0.393,0.234
"COc1cccc(OCCCN)c1-c1cc(Nc2cnc(C#N)cn2)n[nH]1 [Prexasertib] + C=CCn1c(=O)c2cnc(Nc3ccc(N4CCN(C)CC4)cc3)nc2n1-c1cccc(C(C)(C)O)n1 [AZD1775] (first compound max 1 µM, partner max 1 µM)",1,0.821,0.896,0.727,0.819,0.601,0.531,0.75,0.765,0.686,0.269,0.822,0.917,0.853,1,0.847,0.758,0.888,1,0.701
"COc1cccc(OCCCN)c1-c1cc(Nc2cnc(C#N)cn2)n[nH]1 [Prexasertib] + CCc1c2c(nc3ccc(O)cc13)-c1cc3c(c(=O)n1C2)COC(=O)[C@]3(O)CC [SN-38] (first compound max 1 µM, 7x7, partner max 0.3 µM)",1,0.894,0.933,0.854,0.794,0.612,0.537,0.958,0.727,0.743,0.402,0.98,0.85,0.867,1,0.865,0.743,0.971,1,0.954
"COc1cccc(OCCCN)c1-c1cc(Nc2cnc(C#N)cn2)n[nH]1 [Prexasertib] + CN(C)CCCOc1ccc(-c2ccc3ncc4c(c3c2)n(C2CCOCC2)c(=O)n4C)cn1 [AZD0156] (first compound max 1 µM, 7x7, partner max 1 µM)",1,0.699,0.697,0.541,0.782,0.401,0.288,0.536,0.702,0.711,0.258,0.658,0.833,0.775,1,0.825,0.724,0.597,1,0.529
"COc1cccc(OCCCN)c1-c1cc(Nc2cnc(C#N)cn2)n[nH]1 [Prexasertib] + C[C@@H]1COCCN1C2=NC(=NC(=C2)C3(CC3)[S@](=N)(=O)C)C4=C5C=CNC5=NC=C4 [AZD6738] (first compound max 1 µM, 7x7, partner max 10 µM)",0.999,0.644,0.794,0.551,0.756,0.614,0.361,0.539,0.655,0.575,0.449,0.686,0.797,0.775,1,0.741,0.713,0.742,1,0.501
"COc1cccc(OCCCN)c1-c1cc(Nc2cnc(C#N)cn2)n[nH]1 [Prexasertib] + Cc1cc2ncnn2cc1Nc1ncc2c(n1)n(C1CCOCC1)c(=O)n2C [AZD7648] (first compound max 1 µM, 7x7, partner max 10 µM)",1,0.702,0.664,0.483,0.789,0.474,0.416,0.571,0.696,0.656,0.288,0.693,0.801,0.881,1,0.847,0.735,0.65,1,0.62
"COc1cccc(OCCCN)c1-c1cc(Nc2cnc(C#N)cn2)n[nH]1 [Prexasertib] + O=C(c1cc(Cc2n[nH]c(=O)c3ccccc23)ccc1F)N1CCN(C(=O)C2CC2)CC1 [Olaparib] (first compound max 1 µM, 7x7, partner max 10 µM)",0.964,0.673,0.747,0.722,0.796,0.301,0.398,0.58,0.668,0.639,0.266,0.779,0.621,0.825,1,0.727,0.593,0.795,1,0.532
"COc1cc2c(cc1OCCCCCOc1cc3c(cc1OC)C(=O)N1C=C(C)C[C@H]1C=N3)N=C[C@@H]1CC(C)=CN1C2=O [SG3199] + O=C(c1cc(Cc2n[nH]c(=O)c3ccccc23)ccc1F)N1CCN(C(=O)C2CC2)CC1 [Olaparib] (first compound max 0.001 µM, 7x7, partner max 10 µM)",0.228,0.0595,0.172,0.202,0.192,0.0839,0.355,0.0922,0.0716,0.159,0.0746,0.214,0.0982,0.118,0.136,0.192,0.104,0.114,0.958,0.149
"CCc1c2c(nc3ccc(O)cc13)-c1cc3c(c(=O)n1C2)COC(=O)[C@]3(O)CC [SN-38] + CN(C)CCCOc1ccc(-c2ccc3ncc4c(c3c2)n(C2CCOCC2)c(=O)n4C)cn1 [AZD0156] (first compound max 0.3 µM, 7x7, partner max 1 µM)",0.946,0.429,0.925,0.87,0.72,0.624,0.319,0.246,0.324,0.673,0.444,0.978,0.246,0.786,0.96,0.869,0.258,0.803,1,0.905
